How the values were obtained:
[1] = target: T1, MAGL (Mus musculus (Mouse), UniProt O35678); assay: In vitro competitive activity-based protein profiling (mouse brain membrane fraction or cell lysates), MAGL band; format: biochemical; conditions: mouse proteome; for inhibition at 1 µM: read-out: MAGL % Inh 1 μM (mouse); for IC50: competitive ABPP
Description: In Vitro Competitive Activity-Based Protein Profiling.
Proteomes (mouse brain membrane fraction or cell lysates) (50 μL, 1.0 mg/mL total protein concentration) were preincubated with varying concentrations of inhibitors at 37° C. After 30 min, FP—Rh (1.0 μL, 50 μM in DMSO) was added and the mixture was incubated for another 30 min at 37° C. Reactions were quenched with SDS loading buffer (50 μL-4×) and run on SDS-PAGE.

[2] = target: T2, ABHD6 (Mus musculus (Mouse), UniProt Q8R2Y0); assay: In vitro competitive activity-based protein profiling (mouse brain membrane fraction or cell lysates), ABHD6 band; format: biochemical; conditions: mouse proteome; for inhibition at 1 µM: read-out: ABHD6 % Inh 1 μM (mouse); for IC50: competitive ABPP
Summary of the method: (§1)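 Mouse proteome samples (brain membrane fraction or cell lysate, 1.0 mg/mL protein) were pretreated with varying inhibitor concentrations and subsequently probed with fluorophosphonate-rhodamine, each step lasting 30 min at 37° C. Labelled proteins were separated by SDS-PAGE, and band fluorescence was imaged and quantified.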

[3] = target: T3, FAAH (Mus musculus (Mouse), UniProt O08914); assay: In vitro competitive activity-based protein profiling (mouse brain membrane fraction or cell lysates), FAAH band; format: biochemical; conditions: mouse proteome; for inhibition at 1 µM: read-out: FAAH % Inh 1 μM (mouse); for IC50: competitive ABPP
Summary of the method: as §1

[4] = target: T1, MAGL; assay: Mouse brain proteomes from inhibitor treated mice (oral gavage, sacrificed 4 h after administration, ABPP analysis); format: in vivo, mouse (C57Bl/6J); conditions: 5 mg/kg oral gavage
Summary of the method: (§2)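 Percent inhibition in brain tissue measured by ABPP 4 h after a single oral gavage dose (5 mg/kg) to wild-type C57Bl/6J mice; vehicle was, for example, PEG400/Ethanol/PBS at 7/2/1.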

[5] = target: T3, FAAH; assay: Mouse brain proteomes from inhibitor treated mice (oral gavage, sacrificed 4 h after administration, ABPP analysis), FAAH; format: in vivo, mouse (C57Bl/6J); conditions: 5 mg/kg oral gavage
Summary of the method: as §2

[6] = target: T2, ABHD6; assay: Mouse brain proteomes from inhibitor treated mice (oral gavage, sacrificed 4 h after administration, ABPP analysis), ABHD6; format: in vivo, mouse (C57Bl/6J); conditions: 5 mg/kg oral gavage
Summary of the method: as §2

T2 sequence (Q8R2Y0 whole entry): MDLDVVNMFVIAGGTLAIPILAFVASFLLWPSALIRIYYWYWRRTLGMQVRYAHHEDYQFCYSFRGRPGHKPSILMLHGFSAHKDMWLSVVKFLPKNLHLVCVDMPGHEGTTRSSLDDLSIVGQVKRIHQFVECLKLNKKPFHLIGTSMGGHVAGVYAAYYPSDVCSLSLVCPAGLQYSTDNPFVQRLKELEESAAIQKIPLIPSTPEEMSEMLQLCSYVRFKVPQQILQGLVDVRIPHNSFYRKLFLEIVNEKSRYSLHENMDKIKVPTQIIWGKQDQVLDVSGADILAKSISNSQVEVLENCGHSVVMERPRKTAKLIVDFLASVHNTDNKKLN
T1 sequence (O35678 whole entry): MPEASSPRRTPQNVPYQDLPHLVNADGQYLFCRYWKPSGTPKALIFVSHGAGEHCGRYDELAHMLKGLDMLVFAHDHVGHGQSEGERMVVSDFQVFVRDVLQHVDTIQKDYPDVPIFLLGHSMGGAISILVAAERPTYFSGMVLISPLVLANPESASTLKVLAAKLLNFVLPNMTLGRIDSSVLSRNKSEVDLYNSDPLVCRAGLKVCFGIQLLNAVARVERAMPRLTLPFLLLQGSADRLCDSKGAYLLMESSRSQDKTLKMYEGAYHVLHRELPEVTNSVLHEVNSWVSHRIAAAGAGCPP
T3 sequence (O08914 whole entry): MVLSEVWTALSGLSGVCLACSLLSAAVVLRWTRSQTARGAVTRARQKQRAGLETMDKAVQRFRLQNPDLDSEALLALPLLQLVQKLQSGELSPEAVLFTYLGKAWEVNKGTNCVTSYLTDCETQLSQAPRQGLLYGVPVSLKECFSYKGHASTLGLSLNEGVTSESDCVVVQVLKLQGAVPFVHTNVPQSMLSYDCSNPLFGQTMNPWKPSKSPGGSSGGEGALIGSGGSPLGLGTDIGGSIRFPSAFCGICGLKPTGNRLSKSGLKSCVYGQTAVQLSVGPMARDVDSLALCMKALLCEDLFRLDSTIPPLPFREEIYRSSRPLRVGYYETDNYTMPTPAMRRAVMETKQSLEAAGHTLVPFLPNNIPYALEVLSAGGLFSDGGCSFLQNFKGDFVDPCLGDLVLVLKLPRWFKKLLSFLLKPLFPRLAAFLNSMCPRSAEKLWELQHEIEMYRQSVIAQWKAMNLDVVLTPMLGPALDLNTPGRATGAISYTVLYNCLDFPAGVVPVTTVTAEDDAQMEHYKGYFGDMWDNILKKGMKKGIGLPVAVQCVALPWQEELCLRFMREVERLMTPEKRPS

Structure (SMILES) | inhibition at 1 µM [1] | IC50 [1] | inhibition at 1 µM [2] | IC50 [2] | inhibition at 1 µM [3] | IC50 [3] | MAGL % Inh 5 mg/kg (mouse) [4] | FAAH % Inh 5 mg/kg (mouse) [5] | ABHD6 % Inh 5 mg/kg (mouse) [6]
O=C(OC(C(F)(F)F)C(F)(F)F)N1CCC2(CCCN2Cc2ccc(Cl)cc2N2CCOCC2)CC1 [Example 77, 1,1,1,3,3,3-Hexafluoropropan-2-yl 1-(4-chloro-2-morpholinobenzyl)-1,8-diazaspiro[4.5]decane-8-carboxylate] | > 75% | < 0.1 µM | < 25% | > 1 µM | < 25% | > 1 µM | ### (### is ≥75%) | # (# is <25%) | # (# is <25%)
O=C(OC(C(F)(F)F)C(F)(F)F)N1CCC2(CCCN2Cc2ccc(C(F)(F)F)cc2N2CCCCC2)CC1 [Example 78, 1,1,1,3,3,3-Hexafluoropropan-2-yl 1-(2-(piperidin-1-yl)-4-(trifluoromethyl)benzyl)-1,8-diazaspiro[4.5]decane-8-carboxylate] | > 75% | < 0.1 µM | < 25% | > 1 µM | < 25% | > 1 µM | ## (## is equal to or greater than 25% but less than 75%) | # (# is <25%) | # (# is <25%)
O=C(OC(C(F)(F)F)C(F)(F)F)N1CCC2(CCCN2Cc2cccc(N3CCOCC3)c2Cl)CC1 [Example 79, 1,1,1,3,3,3-Hexafluoropropan-2-yl 1-(2-chloro-3-morpholinobenzyl)-1,8-diazaspiro[4.5]decane-8-carboxylate] | > 75% | < 0.1 µM | < 25% | > 1 µM | < 25% | > 1 µM | ### (### is ≥75%) | # (# is <25%) | # (# is <25%)
O=C(OC(C(F)(F)F)C(F)(F)F)N1CCC2(CCCN2Cc2cccc(N3CCCCC3)c2Cl)CC1 [Example 80, 1,1,1,3,3,3-Hexafluoropropan-2-yl 1-(2-chloro-3-(piperidin-1-yl)benzyl)-1,8-diazaspiro[4.5]decane-8-carboxylate] | > 75% | < 0.1 µM | < 25% | > 1 µM | < 25% | > 1 µM | ### (### is ≥75%) | ## (## is equal to or greater than 25% but less than 75%) | ## (## is equal to or greater than 25% but less than 75%)
O=C(OC(C(F)(F)F)C(F)(F)F)N1CCC2(CCCN2Cc2cccc(N3CCCC3)c2Cl)CC1 [Example 81, 1,1,1,3,3,3-Hexafluoropropan-2-yl 1-(2-chloro-3-(pyrrolidin-1-yl)benzyl)-1,8-diazaspiro[4.5]decane-8-carboxylate] | > 75% | < 0.1 µM | < 25% | > 1 µM | < 25% | > 1 µM | ### (### is ≥75%) | # (# is <25%) | # (# is <25%)
O=C(OC(C(F)(F)F)C(F)(F)F)N1CCC2(CCCN2Cc2cccc(N3CC4CCC(C3)O4)c2Cl)CC1 [Example 82, 1,1,1,3,3,3-Hexafluoropropan-2-yl 1-(3-(8-oxa-3-azabicyclo[3.2.1]octan-3-yl)-2-chlorobenzyl)-1,8-diazaspiro[4.5]decane-8-carboxylate] | > 75% | < 0.1 µM | < 25% | > 1 µM | < 25% | > 1 µM | ### (### is ≥75%) | # (# is <25%) | # (# is <25%)
Cc1c(CN2CCCC23CCN(C(=O)OC(C(F)(F)F)C(F)(F)F)CC3)cccc1N1CCCCC1 [Example 84, 1,1,1,3,3,3-Hexafluoropropan-2-yl 1-(2-methyl-3-(piperidin-1-yl)benzyl)-1,8-diazaspiro[4.5]decane-8-carboxylate] | > 75% | 0.1 to 1 µM | < 25% | > 1 µM | < 25% | > 1 µM | ### (### is ≥75%) | # (# is <25%) | # (# is <25%)

Reference: patent US10030020B2, “Spirocycle compounds and methods of making and using same” (Abide Therapeutics, Inc., priority 2016, dated 2018)
